In US5196412A, “Gallium compounds” (Johnson Matthey, Inc., priority 1991, dated 1993):
Like-named read-outs stand apart in the source and are kept apart here.

How the values were obtained:
bone = settings: cited from earlier work
[1] = system: cancer-associated hypercalcemia; settings: cited from earlier work
renal toxicity = settings: cited from earlier work
[2] = oral absorption of gallium in rats (4-hour plasma gallium AUC); assay type: in vivo, Male Sprague Dawley rats; settings: rat, 0.067 mmol/kg, 0-4 hours, absorption from the intestine
Description: According to the invention, compounds were tested for oral absorption in rats. Male Sprague Dawley rats weighing 150-225 g were purchased from Harlan Sprague Dawley, Inc. (Indianapolis, Ind.). The gallium standard solution is from Aldrich Chemical Co (Milwaukee, Wis.). Metofane is a product from Pitman-Moore (Mundelein, Ill.), and all other chemicals are commercially available. Gallium test compounds were dissolved in 18 megaohm water (Millipore, Bedford, Mass.) or suspended in 0.5% carboxymethyl cellulose in 5% ethanol, if the compound was not water soluble. The suspensions were sonicated at room temperature for about 5 minutes. […]
Sutures were made with 3-4 stitches with 3-0 silk surgical thread (Ethicon Inc, Somerville, N.J.). […] The blood was placed in 1 ml Eppendorf tubes precoated with 50 μl heparin (1,000 U/ml and air dried, so there was no blood dilution involved. The plasma was recovered after the blood was centrifuged for 2 minutes in a Fischer Micro-centrifuge, Model 235B, and its gallium content measured by a Varian Flameless Atomic Absorption Spectrometer. The standard curve was linear in the gallium concentrations of 5-100 ng/ml. The data under the […] versus time curve (AUC) for 0-4 hours was estimated. […]

gastro-intestinal tract = settings: pH 4.5-7; cited from earlier work
[3] = pH 4.5-7; cited from earlier work

SMILES: [Ga] [gallium]
- bone strength (bone): increases bone strength
- resorption of calcium from bone (bone): inhibiting the resorption of calcium from bone
- serum calcium ([1]; patients with hypercalcemia of malignancy): reduce serum calcium
- efficacy in cancer-associated hypercalcemia ([1]; seven day continuous i.v. infusion): effective
- renal toxicity (renal toxicity; i.v. bolus): renal toxicity is dose-limiting
- renal toxicity (renal toxicity; seven day continuous i.v. infusion, cancer-associated hypercalcemia): showed no renal toxicity

SMILES: O=[N+]([O-])[O-].O=[N+]([O-])[O-].O=[N+]([O-])[O-].[Ga+3] [Ga(NO3)3, gallium nitrate]
- 4-hour plasma gallium AUC [2]: 897 (ng//ml)h

SMILES: [Ga+3] [gallium(III) aquo-ion]
- absorption (gastro-intestinal tract): very poorly absorbed
- hydrolysis [3]: extensively hydrolysed to insoluble hydroxides
